Test results: patent US7122666B2, “Heteroaryl-substituted pyrrole derivatives, their preparation and their therapeutic uses” (Sankyo Company, Limited, priority 1999, dated 2006)
Where two headings read alike, the source gives them in different places.

Columns and labels:
[1] = test system: TNFα production in human whole blood; assay: Inhibition of the production of TNFα in vitro in human whole blood (Test Examples 1 and 1′); assay type: cell-based; conditions: 6 hours at 37° C., plasma TNFα by ELISA
Experimental: (§1) Inhibition of the Production of the Cytokines IL-1β and TNFα in Vitro in Human Whole Blood
(§2) This test was performed according to the method of Hartman, et al. [D. A. Hartman, S. J. Ochalski and R. P. Carlson; The effects of anti-inflammatory and antiallergic drugs on cytokine release after stimulation of human whole blood by lipopolysaccharide and zymosan A: Inflamm. Res., 44, 269 (1995)].
(§3) Peripheral blood samples were collected in the presence of heparin from healthy adult volunteers. 1000 μl of whole blood were added to an Eppendorf tube to which 2 μl of a dimethyl sulfoxide solution of the test compound had been added in advance, after which 10 μl of lipopolysaccharide (E. coli 026: B6 origin, Difco) were added as a stimulant (final concentration of said lipopolysaccharide: 10 μg/ml). This was mixed well and then incubated for 6 hours at 37° C. in the presence of 5% CO2. At the end of the incubation, the mixture was cooled to 4° C. to stop the reaction, followed immediately by centrifuging for 5 minutes at 14,000 rpm to separate and collect the supernatant plasma. The IL-1β and TNFα produced and released into the plasma were measured using a commercially available enzyme immunoassay (ELISA) kit [Cayman (IL-1β) and Genzyme (TNFα)]. The procedure was also repeated in the absence of test compound. The inhibitory effect [IC50 (μM)] on the production of IL-1β and TNFα was determined from the amounts of the cytokines produced in the presence and absence of the test compound.
(§4) Inhibition of the Production of the Cytokines IL-1β and TNFα In Vitro in Human Whole Blood
as §3, with “O26:” for “026:”, “plasma” for “plasma.”, “kits” for “kit”, “determined by the method of least squares” for “determined”

[2] = test system: IL-1β production in human whole blood; assay: Inhibition of the production of IL-1β in vitro in human whole blood (Test Examples 1 and 1′); assay type: cell-based; conditions: Table 8′, lipopolysaccharide 10 μg/ml, 6 hours at 37° C., plasma IL-1β by ELISA, least squares, read-out: Inhibitory Effect on IL-1β Production (in vitro) IC50
Experimental: as §1, §2, §3, §4
as §3, with “O26:” for “026:”, “plasma” for “plasma.”, “kits” for “kit”, “determined by the method of least squares” for “determined”

[3] = Table 3, lipopolysaccharide 10 μg/ml, read-out: Inhibitory Effect on TNFα Production [IC50 (μM)]
[4] = Table 7′, lipopolysaccharide 10 μg/ml, least squares, read-out: Inhibitory Effect on TNFα Production (in vitro) IC50

SMILES | IC50 [1, 3] [µM] | IC50 [1, 4] [µM] | IC50 [2] [nM]
Fc1ccc(-c2[nH]cc(C3=CC4CCC(C3)N4)c2-c2ccncc2)cc1 (racemic) [Example 45, (±)-4-(8-Azabicyclo[3.2.1]oct-2-en-3-yl)-2-(4-fluorophenyl)-3-(pyridin-4-yl)-1H-pyrrole] | 0.14 | – | –
Fc1ccc(-c2[nH]cc(C3=CC4CC5(CCCC5)CN4CC3)c2-c2ccncc2)cc1 (racemic) [Example 47′, (±)-4-[Cyclopentanespiro-2′-(1′,2′,3′,5′,6′,8a′-hexahydroindolizin)-7′-yl]-2-(4-fluorophenyl)-3-(pyridin-4-yl)-1H-pyrrole] | – | 0.01 | 33
Fc1ccc(-c2[nH]cc(C3=CC4CCCN4CC3)c2-c2ccncc2)cc1 (racemic) [Example 60, (±)-2-(4-Fluorophenyl)-4-(1,2,3,5,6,8a-hexahydroindolizin-7-yl)-3-(pyridin-4-yl)-1H-pyrrole] | 0.047 | – | –
CCCN1CCC(c2c[nH]c(-c3ccc(F)cc3)c2-c2ccncc2)=CC1C (racemic) [Example 85, (±)-2-(4-Fluorophenyl)-4-(6-methyl-1-propyl-1,2,3,6-tetrahydropyridin-4-yl)-3-(pyridin-4-yl)-1H-pyrrole] | 0.44 | – | –
CCCN1CC=C(c2c[nH]c(-c3ccc(F)cc3)c2-c2ccncc2)CC1C (racemic) [Example 86, (±)-2-(4-Fluorophenyl)-4-(2-methyl-1-propyl-1,2,3,6-tetrahydropyridin-4-yl)-3-(pyridin-4-yl)-1H-pyrrole] | 0.29 | – | –
Fc1ccc(-c2[nH]cc(C3=CC4CCCCN4CC3)c2-c2ccncc2)cc1 (racemic) [Example 87, (±)-2-(4-Fluorophenyl)-4-(1,3,4,6,7,9a-hexahydro-2H-quinolizin-8-yl)-3-(pyridin-4-yl)-1H-pyrrole] | 0.31 | – | –
Fc1ccc(-c2[nH]cc(C3=CC4CCCN4CC3)c2-c2ccncc2)cc1F (racemic) [Example 92, (±)-2-(3,4-Difluorophenyl)-4-(1,2,3,5,6,8a-hexahydroindolizin-7-yl)-3-(pyridin-4-yl)-1H-pyrrole] | 0.045 | – | –
FC(F)(F)c1cccc(-c2[nH]cc(C3=CC4CCCN4CC3)c2-c2ccncc2)c1 (racemic) [Example 94, (±)-4-(1,2,3,5,6,8a-Hexahydroindolizin-7-yl)-3-(pyridin-4-yl)-2-(3-trifluoromethylphenyl)-1H-pyrrole] | 0.031 | – | –
Fc1ccc(-c2[nH]c(C3CCNCC3)cc2-c2ccncc2)cc1 [Compound A, reference compound] | 1.9 | 1.9 | –
Fc1ccc(-c2ncn(C3CCNCC3)c2-c2ccncc2)cc1 [Compound B, reference compound] | 1.73 | 1.73 | –
CO[C@@H]1C[C@H]2C=C(c3c[nH]c(-c4ccc(F)cc4)c3-c3ccncc3)CCN2C1 [Example 2′, 2-(4-Fluorophenyl)-4-[(2R,8aS)-2-methoxy-1,2,3,5,6,8a-hexahydroindolizin-7-yl]-3-(pyridin-4-yl)-1H-pyrrole] | – | 0.062 | 31
O[C@@H]1C[C@H]2C=C(c3c[nH]c(-c4ccc(F)cc4)c3-c3ccncc3)CCN2C1 [Example 4′, 2-(4-Fluorophenyl)-4-[(2R,8aS)-2-hydroxy-1,2,3,5,6,8a-hexahydroindolizin-7-yl]-3-(pyridin-4-yl)-1H-pyrrole] | – | 0.054 | 41
Fc1ccc(-c2[nH]cc(C3=C[C@@H]4C[C@H](Cl)CN4CC3)c2-c2ccncc2)cc1 [Example 6′, 4-[(2S,8aS)-2-Chloro-1,2,3,5,6,8a-hexahydroindolizin-7-yl]-2-(4-fluorophenyl)-3-(pyridin-4-yl)-1H-pyrrole] | – | 0.027 | –
Fc1ccc(-c2[nH]cc(C3=C[C@@H]4CC5(CN4CC3)OCCO5)c2-c2ccncc2)cc1 [Example 14′, 4-[(8aS)-2,2-Ethylenedioxy-1,2,3,5,6,8a-hexahydroindolizin-7-yl]-2-(4-fluorophenyl)-3-(pyridin-4-yl)-1H-pyrrole] | – | 0.004 | 9.2
Fc1ccc(-c2[nH]cc(C3=C[C@@H]4CCCN4CC34CC4)c2-c2ccncc2)cc1 [Example 19′, 4-[Cyclopropanespiro-6′-[(8a′S)-1′,2′,3′,5′,6′,8a′-hexahydroindolizin]-7′-yl]-2-(4-fluorophenyl)-3-(pyridin-4-yl)-1H-pyrrole] | – | 0.044 | 8.3
CO[C@H]1C[C@H]2C=C(c3c[nH]c(-c4ccc(F)cc4)c3-c3ccncc3)CCN2C1 [Example 21′, 2-(4-Fluorophenyl)-4-[(2S,8aS)-2-methoxy-1,2,3,5,6,8a-hexahydroindolizin-7-yl)-3-(pyridin-4-yl)-1H-pyrrole] | – | 0.046 | 18
C=C1C[C@H]2C=C(c3c[nH]c(-c4ccc(F)cc4)c3-c3ccncc3)CCN2C1 [Example 23′, 2-(4-Fluorophenyl)-4-[(8aS)-2-methylidene-1,2,3,5,6,8a-hexahydroindolizin-7-yl]-3-(pyridin-4-yl)-1H-pyrrole] | – | 0.0037 | 3.8
CC1(C)C[C@H]2C=C(c3c[nH]c(-c4ccc(F)cc4)c3-c3ccncc3)CCN2C1 [Example 27′] | – | 0.0038 | 1.4
CS[C@H]1C[C@H]2C=C(c3c[nH]c(-c4ccc(F)cc4)c3-c3ccncc3)CCN2C1 [Example 29′, 2-(4-Fluorophenyl)-4-[(2S,8aS)-2-methylthio-1,2,3,5,6,8a-hexahydroindolizin-7-yl]-3-(pyridin-4-yl)-1H-pyrrole] | – | 0.0036 | 1
CCCCS[C@H]1C[C@H]2C=C(c3c[nH]c(-c4ccc(F)cc4)c3-c3ccncc3)CCN2C1 [Example 34′, 4-[(2S,8aS)-2-Butylthio-1,2,3,5,6,8a-hexahydroindolizin-7-yl)-2-(4-fluorophenyl)-3-(pyridin-4yl)-1H-pyrrole] | – | 0.046 | 49
CCS[C@H]1C[C@H]2C=C(c3c[nH]c(-c4ccc(F)cc4)c3-c3ccncc3)CCN2C1 [Example 36′, 4-[(2S,8aS)-2-Ethylthio-1,2,3,5,6,8a-hexahydroindolizin-7-yl]-2-(4-fluorophenyl)-3-(pyridin-4-yl)-1H-pyrrole] | – | 0.018 | 26
CC=C1C[C@H]2C=C(c3c[nH]c(-c4ccc(F)cc4)c3-c3ccncc3)CCN2C1 [Example 37′, 4-[(8aS)-2-Ethylidene-1,2,3,5,6,8a-hexahydroindolizin-7-yl]-2-(4-fluorophenyl)-3-(pyridin-4-yl)-1H-pyrrole] | – | 0.01 | 58
Fc1ccc(-c2[nH]cc(C3=CCN(CCc4ccccc4)CC3)c2-c2ccncc2)cc1 [Example 58, 2-(4-Fluorophenyl)-4-(1-phenethyl-1,2,3,6-tetrahydropyridin-4-yl)-3-(pyridin-4-yl)-1H-pyrrole] | 0.089 | – | –
Fc1ccc(-c2[nH]cc(C3=C[C@@H]4CCCN4CC3)c2-c2ccncc2)cc1 [Example 83, (−)-2-(4-Fluorophenyl)-4-(1,2,3,5,6,8a-hexahydroindolizin-7-yl)-3-(pyridin-4-yl)-1H-pyrrole] | 0.026 | – | –
